Holding throughout (assay): [3H]InsP3 radioligand displacement on purified recombinant protein, Scatchard analysis
(In general: Loss of bound radioactivity is the signal in a displacement assay; it reports binding, not function.)

Assay [1] has as its target T1, human type-I InsP 3 receptor ligand binding domain (InsP3R-LBD) (Homo sapiens, UniProt Q14643, R568K).
T1 construct: gene ITPR1; residues 224-605, mRFP- and 6xHis-tagged

The target of assay [2] is T2, human type-I InsP 3 receptor ligand binding domain (InsP3R-LBD) (Homo sapiens, UniProt Q14643, R265K).
T2 construct: gene ITPR1; residues 224-605, mRFP- and 6xHis-tagged
T2 sequence (Q14643 224-605 R265K): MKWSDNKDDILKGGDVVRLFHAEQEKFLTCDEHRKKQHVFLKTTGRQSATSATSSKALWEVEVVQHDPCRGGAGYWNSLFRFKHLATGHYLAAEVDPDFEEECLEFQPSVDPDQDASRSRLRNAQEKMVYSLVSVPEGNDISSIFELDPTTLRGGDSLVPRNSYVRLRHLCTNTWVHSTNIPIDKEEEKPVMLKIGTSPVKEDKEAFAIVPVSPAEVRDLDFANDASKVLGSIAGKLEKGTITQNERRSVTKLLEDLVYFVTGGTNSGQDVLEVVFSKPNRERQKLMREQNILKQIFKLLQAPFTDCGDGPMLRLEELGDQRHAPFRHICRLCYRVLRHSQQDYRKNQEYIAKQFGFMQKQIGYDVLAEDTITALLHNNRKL

For assay [3], the target named is T3, human type-I InsP 3 receptor ligand binding domain (InsP3R-LBD) (Homo sapiens, UniProt Q14643, R269K).
T3 construct: gene ITPR1; residues 224-605, mRFP- and 6xHis-tagged
T3 sequence (Q14643 224-605 R269K): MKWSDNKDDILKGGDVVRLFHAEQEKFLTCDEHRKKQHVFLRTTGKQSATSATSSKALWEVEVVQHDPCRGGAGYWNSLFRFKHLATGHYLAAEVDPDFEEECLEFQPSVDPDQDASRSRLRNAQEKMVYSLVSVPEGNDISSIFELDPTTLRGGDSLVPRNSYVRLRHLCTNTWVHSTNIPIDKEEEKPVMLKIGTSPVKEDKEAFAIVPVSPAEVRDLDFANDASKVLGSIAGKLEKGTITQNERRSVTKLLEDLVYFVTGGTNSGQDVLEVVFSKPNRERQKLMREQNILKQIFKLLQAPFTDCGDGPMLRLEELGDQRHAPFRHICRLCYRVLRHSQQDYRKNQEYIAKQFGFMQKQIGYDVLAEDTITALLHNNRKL

The target of assay [4] is T4, human type-I InsP 3 receptor ligand binding domain (InsP3R-LBD) (Homo sapiens, UniProt Q14643).
T4 construct: gene ITPR1; residues 224-605, mRFP- and 6xHis-tagged
T4 sequence (Q14643 224-605): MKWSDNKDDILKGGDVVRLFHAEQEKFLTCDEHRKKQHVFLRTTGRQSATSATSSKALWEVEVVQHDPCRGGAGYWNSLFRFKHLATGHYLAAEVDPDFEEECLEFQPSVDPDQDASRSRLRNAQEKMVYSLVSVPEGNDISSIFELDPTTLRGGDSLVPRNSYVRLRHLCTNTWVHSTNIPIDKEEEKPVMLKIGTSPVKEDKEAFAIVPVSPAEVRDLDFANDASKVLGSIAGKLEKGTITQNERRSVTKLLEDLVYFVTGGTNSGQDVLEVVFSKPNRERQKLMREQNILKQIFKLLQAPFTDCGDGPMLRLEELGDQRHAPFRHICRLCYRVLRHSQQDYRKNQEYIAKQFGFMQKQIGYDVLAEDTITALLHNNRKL

In general, pKd refers to the Kd on a negative log10 scale, so that one unit is a factor of ten.

pKd: −log10 of the molar value.

T1 sequence (Q14643 224-605 R568K): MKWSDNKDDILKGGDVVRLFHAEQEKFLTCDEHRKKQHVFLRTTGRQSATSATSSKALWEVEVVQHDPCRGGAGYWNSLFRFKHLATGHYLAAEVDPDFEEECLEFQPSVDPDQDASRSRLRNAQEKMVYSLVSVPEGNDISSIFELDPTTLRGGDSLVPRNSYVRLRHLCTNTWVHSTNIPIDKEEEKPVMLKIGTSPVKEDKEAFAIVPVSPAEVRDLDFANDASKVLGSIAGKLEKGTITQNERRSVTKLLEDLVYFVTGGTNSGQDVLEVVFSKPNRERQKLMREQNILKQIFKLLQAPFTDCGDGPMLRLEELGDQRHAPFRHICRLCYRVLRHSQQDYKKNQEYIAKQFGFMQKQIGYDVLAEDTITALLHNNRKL

For the molecule `O=P(O)(O)O[C@@H]1[C@H](O)[C@H](O)[C@@H](OP(=O)(O)O)[C@H](OP(=O)(O)O)[C@H]1O` [InsP 3], the pKd was 8.28 in assay [1], 8.22 in assay [2], 8.00 in assay [3] and 8.52 in assay [4].

Values taken from paper PMC4416922, “Measurement of Inositol 1,4,5-Trisphosphate in Living Cells Using an Improved Set of Resonance Energy Transfer-Based Biosensors” (PLoS ONE, 2015).
